From patent US20240124483A1, “Methods for the Treatment of Fibrotic Disease” (SHY Therapeutics, LLC, priority 2021, published 2024) come the findings set out here.

In one experiment the target is KRas G12D mutant (Homo sapiens (Human), UniProt P01116, G12D). The experiment is described as follows: Ras GTP Binding Domain Inhibition Assay, KRas G12D mutant. The note with it: for inhibition at 20 µM: Table 7; for KRas G12D mutant + SOS: % inh. / KRas G12D mutant: % inh.: 20 uM, Table 8. How it is done: A Ras Superfamily Activity Assay (as disclosed in International Application No. PCT/US2018/038613, filed Jun. 20, 2018, which is incorporated by reference in its entirety) was used as a specific assay to evaluate compounds against the following for the following Ras Superfamily proteins: KRas wild type, KRas Q61H mutant, KRas G12C mutant, KRas G12D mutant, Rac-1, and Rho-A.
Chain of KRas G12D mutant (P01116 other isoform, or with tags, fused parts or gaps G12D): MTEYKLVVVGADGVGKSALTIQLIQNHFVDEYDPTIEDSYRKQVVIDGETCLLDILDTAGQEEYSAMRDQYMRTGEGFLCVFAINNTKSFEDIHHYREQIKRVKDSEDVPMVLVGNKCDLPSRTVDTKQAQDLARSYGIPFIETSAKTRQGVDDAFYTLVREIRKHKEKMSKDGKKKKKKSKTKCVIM
Buffer-I: • 25 mM Tris-HCl, pH 7.4 • 27 mM KCl • 137 mM NaCl • 1 mM MgCl2 • 1 mM DTT
Buffer-II: • 50 mM Tris-HCl, pH 7.0 • 1 mM MgCl2 • 1 mM DTT
The small GTPases proteins: KRas wild type. KRas Q61H mutant, KRas G12C mutant, KRas G12D mutants, Rac-1, and Rho-A were expressed as His-tagged proteins. In addition, the Guanosine nucleotide Exchange Factor (GEF) Sos protein (residues 556-1049) was expressed as a His-tagged protein. In cells, the guanine nucleotide exchange factor Sos protein promotes activation of Ras proteins by stimulating an exchange of GDP for GTP. The inclusion of Sos to the Ras GTP binding domain inhibition assay may be considered as an alternative representation of physiological cellular conditions for evaluating the inhibitory activity of some of the tested small molecules.
For the assay, all purified small GTPases proteins were diluted in Buffer-I or Buffer-II to a final concentration of 10-30 μg/mL. 200 μL of each diluted protein was added to a nickel-coated 96-well plate and incubated overnight at 4° C. Then the protein solution was discarded and 200 μL of Buffer-I or Buffer-II was added to each well in the presence of 1% DMSO. Compounds to be tested were added to the protein-coated wells at final concentration of 20 μM, and incubated for 3 hours at room temperature with and without 10-30 μg/mL of Sos added to the final hour of the incubation. When performing IC50 measurements a serial dilution of all tested concentrations was added. Then Cy3-GTP or Cy5-GTP was added to each well to a final concentration of 100 nM. The labeled GTP was incubated for 45 minutes at room temperature. Following GTP incubation, wells were washed 3× in Buffer-I or Buffer-II and 200 μL of Buffer-I or Buffer-II was added to each well. Following washes, the amount of bound labeled-GTP was measured using a SpectraMax M3 (Molecular Devices).

The test system of another experiment is Smad2/3 phosphorylation. The experiment is described as follows: Phospho-Smad2/3 Inhibition Assay in Panc-1 (western blot). In kind it is cell-based. As to conditions: Homo sapiens; for inhibition at 10 µM: 3 hours, PANC-1 stimulated with 10 ng/ml TGF-b1 for 1 hour, read-out: % inh of Smad2/3 phosphorylation in PANC-1; for IC50: PANC-1, TGF-b1 stimulated. Here is the method: (§1) Cell lines: Human tumor-derived pancreatic cancer cell line Panc-1 and mouse muscle myoblast C2C12 were purchased from American Type Culture Collection and grown in complete DMEM-High Glucose, supplemented with penicillin (100 U/mL), streptomycin (100 μg/mL), and 10% heat-inactivated FBS at 37° C. in a humidified incubator with 5% CO2.
(§2) Method: Cells were plated at 350000 cells/well density in a 12-well plate, allowed 3 hours to adhere to the plate, then starved in the appropriate medium in the presence of 0.5% FBS overnight. The small molecules to be tested were added to the cells in the final concentration of 10 μM in the presence of 0.3% DMSO for 3 hours incubation at 37° C. For IC50 value determination, serial dilutions of compounds were added to cells under the same conditions. Next, Panc-1 cells were stimulated with 10 ng/ml TGF-b1 for 1 hour, and C2C12 cells were stimulated with 10 ng/ml TGF-b1 for 20 minutes (recombinant human TGF-b1, R&D Systems). After stimulation cells were lysed with lysis buffer containing 1% Triton X-100, EDTA, and Halt™ Protease & Phosphatase Inhibitor Cocktail (Thermo Scientific). Protein concentration was assessed by BCA protein assay (Thermo Scientific). Phosphorylation level of Smad2/Smad3 was determined by western blot.
(§3) Western blot protocol: Equal amounts of protein (15-50 μg) were separated by SDS-PAGE and transferred to nitrocellulose membranes (Invitrogen by Thermo Fisher Scientific). The membrane was stained with Ponceau S Stain (Boston BioProducts) to verify uniform protein loading. Membranes were blocked with 10% milk and phosphorylation levels of Smad2/Smad3 were assessed by incubating overnight at 4° C. with the following antibodies: Phospho-Smad2 (Ser465/467) and Phosph-Smad3 (Ser423/425), both from Cell Signaling Technology. Then the membranes were incubated with HRP-conjugated secondary antibody (Jackson Immunoresearch, West Grove, PA). Bands were incubated in Amersham ECL Prime Western Blotting Detection Reagent (GE Healthcare) and visualized using the ChemiDoc MP imaging system (Bio-Rad).

Another experiment concerns MAPK p38. Put plainly: MAPK p38 Activation Assay in Panc-1 (western blot). It is filed as cell-based, Human. Also noted: key: Y = yes; N = No. The note with it: at 10 μM. Here is the method: as §1
as §2, with “MAPK p38” for “Smad2/Smad3”
as §3, with “antibody: Phospho-p38 MAPK (Thr180/Tyr182),” for “antibodies: Phospho-Smad2 (Ser465/467) and Phosph-Smad3 (Ser423/425), both”
On the technique in general: A western blot detects proteins with antibodies after separation by electrophoresis.

[1] abbreviates: + SOS, read-out: KRas G12D mutant + SOS: % inh.
Setting [2] is: without SOS, read-out: KRas G12D mutant: % inh.

Where two headings read alike, the source gives them in different places.

Turning to `COCCCNc1nc(-c2nccn2C)nc2sc(-c3ccccc3)c(-c3ccccc3)c12` [Compound 3, N-(3-Methoxypropyl)-2-(1-methyl-1H-imidazol-2-yl)-5,6-diphenylthieno[2,3-d]pyrimidin-4-amine], the inhibition at 20 µM lay within 1 to 25% on KRas G12D mutant (setting [1]) and 46 to 75% on KRas G12D mutant (setting [2]). Further, the “KRas G12D mutant + SOS: % inh.” value on KRas G12D mutant (+ SOS) was “A (A = 1-25% inhibition)”. At KRas G12D mutant (without SOS), the “KRas G12D mutant: % inh.” value is listed as “C (C = 46-75% inhibition)”. Moreover, in the experiment with Smad2/3 phosphorylation, the inhibition at 10 µM amounted to 0%. In addition, the “Activation of MAPK p38 in PANC-1” value in the experiment with MAPK p38 is reported as “Y”.

In the case of `COCCNc1nc(-c2nccn2C)nc2sc(-c3ccccc3)c(-c3ccccc3Cl)c12` [Compound 4, 5-(2-Chlorophenyl)-N-(2-methoxyethyl)-2-(1-methyl-1H-imidazol-2-yl)-6-phenylthieno[2,3-d]pyrimidin-4-amine], the inhibition at 20 µM at KRas G12D mutant (setting [2]) fell in the range of 26 to 45%. On KRas G12D mutant (without SOS), the “KRas G12D mutant: % inh.” value is “B (B = 26-45% inhibition)”. Besides, in the experiment on Smad2/3 phosphorylation, the inhibition at 10 µM lay within 26 to 45%. Moreover, the “Activation of MAPK p38 in PANC-1” value in the experiment with MAPK p38 is “Y”.

`COC1CCN(c2nc(-c3nccn3C)nc3sc(-c4ccn(C)n4)c(-c4ccccc4)c23)CC1` [Compound 6, 4-(4-Methoxypiperidin-1-yl)-2-(1-methyl-1H-imidazol-2-yl)-6-(1-methyl-1H-pyrazol-3-yl)-5-phenylthieno[2,3-d]pyrimidine]: the inhibition at 20 µM on KRas G12D mutant (setting [1]) and at KRas G12D mutant (setting [2]) was 26 to 45% each time. At KRas G12D mutant (+ SOS), the “KRas G12D mutant + SOS: % inh.” value is reported as “B (B = 26-45% inhibition)”. For the same molecule, the “KRas G12D mutant: % inh.” value at KRas G12D mutant (without SOS) is reported as “B (B = 26-45% inhibition)”. Also, the inhibition at 10 µM with Smad2/3 phosphorylation is 0%. Besides, the “Activation of MAPK p38 in PANC-1” value in the experiment with MAPK p38 was “N”.

With `COCCNc1nc(-c2nccn2C)nc2sc(-c3cccc(OC)c3Cl)c(-c3ccc(OC)cc3)c12` [Compound 7, 6-(2-Chloro-3-methoxyphenyl)-N-(2-methoxyethyl)-5-(4-methoxyphenyl)-2-(1-methyl-1H-imidazol-2-yl)thieno[2,3-d]pyrimidin-4-amine], on KRas G12D mutant (setting [1]), the inhibition at 20 µM was 26 to 45%. The “KRas G12D mutant + SOS: % inh.” value on KRas G12D mutant (+ SOS) is “B (B = 26-45% inhibition)”. Further, on KRas G12D mutant (setting [2]), the inhibition at 20 µM lay in the range of 26 to 45%. In addition, the “KRas G12D mutant: % inh.” value on KRas G12D mutant (without SOS) was “B (B = 26-45% inhibition)”. In the experiment with Smad2/3 phosphorylation, the inhibition at 10 µM worked out at 0% and the IC50 – broadly, the concentration at which inhibition is half-maximal – was in the range of 5 to 10 µM. Besides, the “Activation of MAPK p38 in PANC-1” value with MAPK p38 is “Y”.

In the case of `COCCNc1nc(-c2cn(C)cn2)nc2sc(-c3cccc(OC)c3Cl)c(-c3ccc(OC)cc3)c12` [Compound 8, 6-(2-Chloro-3-methoxyphenyl)-N-(2-methoxyethyl)-5-(4-methoxyphenyl)-2-(1-methyl-1H-imidazol-4-yl)thieno[2,3-d]pyrimidin-4-amine], at KRas G12D mutant (setting [1]), the inhibition at 20 µM was 26 to 45%. In addition, the “KRas G12D mutant + SOS: % inh.” value at KRas G12D mutant (+ SOS) is listed as “B (B = 26-45% inhibition)”. Further, the inhibition at 20 µM on KRas G12D mutant (setting [2]) lay within 26 to 45%. At KRas G12D mutant (without SOS), the “KRas G12D mutant: % inh.” value was “B (B = 26-45% inhibition)”. For the same molecule, in the experiment with Smad2/3 phosphorylation, the inhibition at 10 µM lay in the range of 76 to 100% and the IC50 fell in the range of 5 to 10 µM. The “Activation of MAPK p38 in PANC-1” value in the experiment with MAPK p38 was “Y”.

`COCCNc1nc(-c2nccn2C)nc2sc(-c3cccc(OC)c3Cl)c(-c3ccccc3)c12` [Compound 9, 6-(2-Chloro-3-methoxyphenyl)-N-(2-methoxyethyl)-2-(1-methyl-1H-imidazol-2-yl)-5-phenylthieno[2,3-d]pyrimidin-4-amine]: at KRas G12D mutant (setting [1]), the inhibition at 20 µM lay within 46 to 75%. Also, on KRas G12D mutant (+ SOS), the “KRas G12D mutant + SOS: % inh.” value is recorded as “C (C = 46-75% inhibition)”. Further, the inhibition at 20 µM on KRas G12D mutant (setting [2]) lay within 46 to 75%. In addition, on KRas G12D mutant (without SOS), the “KRas G12D mutant: % inh.” value is on record as “C (C = 46-75% inhibition)”. Also, in the experiment with Smad2/3 phosphorylation, the inhibition at 10 µM lay in the range of 76 to 100% and the half-maximal inhibitory concentration (IC50) was 1 to 4.99 µM. The “Activation of MAPK p38 in PANC-1” value in the experiment on MAPK p38 is “Y”.
